Results: patent US20080312326A1, “Method for the Prevention and/or Treatment of Neurodegenerative Diseases Characterized by Administering and Ep1 Receptor Antagonist” (THE JOHN HOPKINS UNIVERSITY, priority 2005, published 2008)

How the values were obtained:
[1] = system: NMDA-induced brain lesion in C57BL/6 mice; assay: NMDA-induced brain lesion after ICV pretreatment, wildtype mice; assay type: in vivo; settings: for brain lesion volume (NMDA-induced): lesion at 48 h, vs NMDA-lesion and vehicle-NMDA groups
Procedure: (§1) Following protocols approved by the Institutional Animal Care and Use Committee of Johns Hopkins University, adult male C57BL/6 mice (Charles River, Wilmington, Mass.) and EP1^−/−, weighing 20-25 g were used in this study.
Weight and rectal temperature of each mouse was recorded before the surgical procedure. The mouse was subjected to intracerebroventricular (ICV) injection of vehicle or freshly prepared compound A or compound B followed by unilateral intrastriatal injection of NMDA, prepared in phosphate buffer saline (pH˜7.2) (J. Neurosci. 1997, 17, 6908-6917). In brief, each mouse was anesthetized, maintained at 1.0% halothane, and mounted on a stereotaxic frame (Stoelting Co., Wood Dale, Ill.). Varying body-weight (BW) doses of compound A (0.1 nmol/kg BW, n=8; 1 nmol/kg BW, n=12; 10 nmol/kg BW, n=8) or compound B (0.1 nmol/kg BW, n=8; 1 nmol/kg BW, n=12; 10 nmol/kg BW, n=9) were injected into the right lateral ventricle (stereotaxic coordinates PA-0.5 mm, lateral-1.0 mm from bregma, and ventral-2.5 mm relative to dura) over 30 sec, with the help of 1-μL Hamilton® syringe, and the needle was left in place for an additional 2 min. Twenty minutes later, 0.3 μl of 50 mM NMDA was injected into the right striatum over 2 min and the needle was left in place for additional 5 min. The NMDA-lesion control group (n=12) received 0.3 μL NMDA, and the vehicle-NMDA control group (n=11) received 0.2 μL vehicle ICV, followed by 0.3 μL NMDA in the striatum. Sham control and vehicle control groups were treated similarly with saline. After injections, mice were placed in a thermoregulated chamber maintained at 31° C. and returned to their cages after full recovery from anesthesia. Throughout the experimental procedure, rectal temperature of mice was monitored and maintained at 37.0±0.5° C.
(§2) At 48 h […], weight and rectal temperature were recorded and brains were harvested and immediately frozen in 2-methyl butane (pre-cooled over dry ice). Brain sections were cut on a cryostat and stained with cresyl violet to estimate lesion volume. Images of the brain sections were taken and analyzed with the help of SigmaScan Pro 5.0 (Systat, Inc., Point Richmond, Calif.).
Data were analyzed using SigmaStat 2.0 (Systat), and significance level was set at p<0.05. Statistical analysis was performed by Student's t-test. All data are reported as means±s.d.

[2] = system: NMDA-induced toxicity in EP1−/− mice; assay: NMDA-induced brain lesion after ICV treatment, EP1−/− mice; assay type: in vivo; settings: ICV treatment of EP1−/− mice, compared to the untreated EP1−/− group
Procedure: as §1
Weight and rectal temperature of each mouse was recorded before the surgical procedure. The mouse was subjected to intracerebroventricular (ICV) injection of vehicle or freshly prepared compound A or compound B followed by unilateral intrastriatal injection of NMDA, prepared in phosphate buffer saline (pH˜7.2) (J. Neurosci. 1997, 17, 6908-6917). In brief, each mouse was anesthetized, maintained at 1.0% halothane, and mounted on a stereotaxic frame (Stoelting Co., Wood Dale, Ill.). […] Throughout the experimental procedure, rectal temperature of mice was monitored and maintained at 37.0±0.5° C.
as §2, with “Brain sections were cut on a cryostat and stained with cresyl violet to estimate lesion volume.” left out
Data were analyzed using SigmaStat 2.0 (Systat), and significance level was set at p<0.05. […]

[3] = 0.1 nmol/kg BW ICV pretreatment 20 min before intrastriatal 50 mM NMDA
[4] = 1 nmol/kg BW ICV pretreatment 20 min before intrastriatal 50 mM NMDA
[5] = 10 nmol/kg BW ICV pretreatment 20 min before intrastriatal 50 mM NMDA

Row | SMILES | brain lesion volume (NMDA-induced) [1, 3] | brain lesion volume (NMDA-induced) [1, 4] | brain lesion volume (NMDA-induced) [1, 5] | toxicity (lesion volume) of the 10 nmol/kg BW dose compared to the 1 mmol/kg BW group ([1]; 10 nmol/kg BW ICV pretreatment, NMDA-induced lesion) | lesion volume to NMDA-induced toxicity in EP1−/− mice [2]
1 | CC(C)CN(c1ccc(C(F)(F)F)cc1OCc1ccc(/C=C/C(=O)O)cc1)S(=O)(=O)c1ccco1 [compound B, (2E)-3-(4-{[2-[(2-furylsulfonyl)(isobutyl)amino]-5-(trifluoromethyl)phenoxy]methyl}phenyl)acrylic acid] | No significant protection | significantly decreased | significantly decreased | slight, but not significant, toxicity | no significant difference
2 | CCCC[C@H](C)C[C@H](O)/C=C/[C@H]1[C@H](O)CC(=O)[C@@H]1CC(=O)C1CCC(C(=O)O)CC1 (stereo partly drawn) [compound A, 4-({(1R,2R,3R)-3-hydroxy-2-[(1E,3S,5S)-3-hydroxy-5-methylnon-1-enyl]-5-oxocyclopentyl}acetyl)cyclohexanecarboxylic acid, reference compound] | non-significant increases | non-significant increases | significant increase | – | –
